{"source": "paper PMC8957246", "about": "“Synthesis and diverse biological activity profile of triethylammonium isatin-3-hydrazones” (ADMET & DMPK, 2022)", "assay_type_in_all_cases": "cell-based", "key": {"[1]": {"test_system": "Enterococcus faecalis ATCC 29212", "assay": "Antimicrobial activity, serial dilution (MIC/MBC), Ef", "conditions": "ATCC29212"}, "[2]": {"test_system": "Pseudomonas fluorescens EL-2.1", "assay": "Bactericidal activity, agar diffusion, Ps. fluorescens", "conditions": "Pseudomonas fluorescens, EL2.1, 2 mM/L", "excerpt": "(§1) Plant pathogenic bacterial strains Micrococcus luteus B-109, Pectobacterium atrosepticum 1043, Pectobacterium carotovorum subsp. carotovorum MI, Pseudomonas fluorescens EL-2.1, and Xanthomonas campestris B-610 and fungal strain Fusarium oxysporum IBPPM 543 were obtained from the specialized scientific culture collection of IBPPM RAS (WFCC no. 975, WDCM no. 1021) (CM IBPPM). Pathogenic fungus Phytophthora cactorum VKM F-985 provided by the All-Russian Collection of Microorganisms (VKM) and deposited at A.E. Favorsky Irkutsk Institute of Chemistry, SB RAS, was also used as test organism. Bacteria M. luteus, P. carotovorum subsp. carotovorum, P. atrosepticum, and Ps. fluorescens were grown in meat-peptone medium (BP), and X. campestris was grown in the medium with glucose, yeast extract, and calcium carbonate (GYCa). Solid media contained Bacto agar (18 g/L); pH was adjusted to 7.2-7.4. All bacterial cultures were grown at 28°C. The mycelial cultures of F. oxysporum and P. cactorum were grown on a glucose-peptone-yeast (GPY) nutrient medium at 27 °C. For inoculum preparation, both fungal strains were initially grown on the agar GPY in Petri dishes and then transferred into the seed medium by punching out 5 mm of the agar plate culture with a self-designed cutter.\nAntibacterial and antifungal activities of the compounds were explored using the agar diffusion method and the technique of a phytopathogen radial growth inhibition. Method of diffusion in agar (measuring the diameter of growth inhibition zones) was used for determining the bactericidal activity. The 6-mm wells were made in ager medium (GYCa for Xanthomonas campestris or BP for other bacteria). Bacterial suspensions were distributed over the agar surface, and the tested compound's solution (150 μl) was added to each well. The width of growth inhibition zones around the wells was determined after incubation for 36-40 h.\n(§2) The solutions of tested compounds were prepared with a concentration of 2 mmol/l (stock solution). For comparison, test compounds were also commonly applied disinfecting agents and antibiotics."}, "[3]": {"test_system": "Fusarium oxysporum IBPPM 543", "assay": "Fungicidal activity, radial growth inhibition, F. oxysporum", "conditions": "for EC50: Fusarium oxysporum, IBPPM543, 168 h, day 7, EC50 = 50C/I, read-out: EC50, μg/mL at day 7", "excerpt": "as §1\nFor the fungicidal activity analysis, radial growth (colony diameters) of the fungi on a solid medium in the absence and in the presence of the compounds 3a,c-g solutions at various concentrations were compared. The method consisted of the following: sterile, melted and then cooled to about 60°C GPY agar medium (20.0 ml) was mixed with the precisely measured volumes of the solutions under question, and poured into a sterile Petri dish (90 mm i.d.). After solidification of GPY agar, the media were inoculated by the fungus using 10-day-old cultures of F. oxysporum or P. cactorum. The inoculation was done by transferring a 5-mm (i.d.) GPY-agar block covered with mycelium to the center of the Petri dish followed by incubation in a thermostat at 27°C. The fungicidal effect was scored by the size of mycelium colony on a Petri dish compared to the control without fungicidal admixtures to GPY agar. Each treatment was performed in at least four replicates in two independent experiments. The observation period ended when the control Petri dish was filled with mycelium (usually after 12 days). The inhibition of the phytopathogen colony growth by the compounds 3a,c-g or fludioxonil solutions was calculated as a percentage by which the mycelium radial propagation was decreased compared to the unaffected control, the latter was taken as 100 % of growth (or zero percent of inhibition). The EC50 value was calculated as the compound concentration at which the radial growth of the fungus colony was decreased by 50 % relative to the non-fungicidal control, according to the formula EC50 = 50C/I based on the approach developed e.g., in [34, 35].\nas §2"}, "[4]": {"conditions": "150 μl per well, 36-40 h, read-out: width of the inhibition zone"}, "[5]": {"conditions": "read-out: Inhibition zone width (mm), not less"}}, "note": "Where two headings read alike, the source gives them in different places.", "data": [{"smiles": "CC[N+](CC)(CC)CC(=O)N/N=C1\\C(=O)N(Cc2cc(C(C)(C)C)c(O)c(C(C)(C)C)c2)c2ccc([N+](=O)[O-])cc21", "note": "[Compound 3f, 2-(2-(1-(3,5-Di-tert-butyl-4-hydroxybenzyl)-5-nitro-2-oxoindolin-3-ylidene)hydrazinyl)-N,N,N-triethyl-2-oxoethanammonium bromide]", "values": [{"measurement": "MBC", "setting": "[1]", "result": "> 500", "unit": "µM"}, {"measurement": "MIC", "setting": "[1]", "result": "> 500", "unit": "µM"}, {"measurement": "zone of inhibition at 2000 µM", "setting": "[2]; [4]", "result": 10, "unit": "mm"}, {"measurement": "zone of inhibition at 2000 µM", "setting": "[2]; [5]", "result": "≥ 10", "unit": "mm"}, {"measurement": "Inhibition value, I (%)", "setting": "[3]; C 6.47 μg/mL, age of the fungus 3 days", "result": 13, "unit": "%"}, {"measurement": "Inhibition value, I (%)", "setting": "[3]; C 6.47 μg/mL, age of the fungus 5 days", "result": 11, "unit": "%"}, {"measurement": "Inhibition value, I (%)", "setting": "[3]; C 6.47 μg/mL, age of the fungus 7 days", "result": 10, "unit": "%"}, {"measurement": "Inhibition value, I (%)", "setting": "[3]; C 6.47 μg/mL, age of the fungus 9 days", "result": 9, "unit": "%"}, {"measurement": "Inhibition value, I (%)", "setting": "[3]; C 12.94 μg/mL, age of the fungus 3 days", "result": 26, "unit": "%"}, {"measurement": "Inhibition value, I (%)", "setting": "[3]; C 12.94 μg/mL, age of the fungus 5 days", "result": 23, "unit": "%"}, {"measurement": "Inhibition value, I (%)", "setting": "[3]; C 12.94 μg/mL, age of the fungus 7 days", "result": 21, "unit": "%"}, {"measurement": "Inhibition value, I (%)", "setting": "[3]; C 12.94 μg/mL, age of the fungus 9 days", "result": 10, "unit": "%"}, {"measurement": "Inhibition value, I (%)", "setting": "[3]; C 25.88 μg/mL, age of the fungus 3 days", "result": 28, "unit": "%"}, {"measurement": "Inhibition value, I (%)", "setting": "[3]; C 25.88 μg/mL, age of the fungus 5 days", "result": 27, "unit": "%"}, {"measurement": "Inhibition value, I (%)", "setting": "[3]; C 25.88 μg/mL, age of the fungus 7 days", "result": 32, "unit": "%"}, {"measurement": "Inhibition value, I (%)", "setting": "[3]; C 25.88 μg/mL, age of the fungus 9 days", "result": 12, "unit": "%"}, {"measurement": "Inhibition value, I (%)", "setting": "[3]; C 38.82 μg/mL, age of the fungus 3 days", "result": 29, "unit": "%"}, {"measurement": "Inhibition value, I (%)", "setting": "[3]; C 38.82 μg/mL, age of the fungus 5 days", "result": 28, "unit": "%"}, {"measurement": "Inhibition value, I (%)", "setting": "[3]; C 38.82 μg/mL, age of the fungus 7 days", "result": 34, "unit": "%"}, {"measurement": "Inhibition value, I (%)", "setting": "[3]; C 38.82 μg/mL, age of the fungus 9 days", "result": 18, "unit": "%"}, {"measurement": "EC50", "setting": "[3]", "result": 30.8, "unit": "µg/mL"}]}, {"smiles": "CC[N+](CC)(CC)CC(=O)N/N=C1\\C(=O)N(Cc2cc(C(C)(C)C)c(O)c(C(C)(C)C)c2)c2c(Br)cc(Cl)cc21", "note": "[Compound 3g, 2-(2-(1-(3,5-Di-tert-butyl-4-hydroxybenzyl)-5-chloro-7-bromo-2-oxoindolin-3-ylidene)hydrazinyl)-N,N,N-triethyl-2-oxoethanammonium bromide]", "values": [{"measurement": "MBC", "setting": "[1]", "result": "> 500", "unit": "µM"}, {"measurement": "MIC", "setting": "[1]", "result": "> 500", "unit": "µM"}, {"measurement": "zone of inhibition at 2000 µM", "setting": "[2]; [4]", "result": 8.5, "unit": "mm"}, {"measurement": "zone of inhibition at 2000 µM", "setting": "[2]; [5]", "result": "≥ 8", "unit": "mm"}, {"measurement": "Inhibition value, I (%)", "setting": "[3]; C 7.15 μg/mL, age of the fungus 3 days", "result": 0, "unit": "%"}, {"measurement": "Inhibition value, I (%)", "setting": "[3]; C 7.15 μg/mL, age of the fungus 5 days", "result": 4, "unit": "%"}, {"measurement": "Inhibition value, I (%)", "setting": "[3]; C 7.15 μg/mL, age of the fungus 7 days", "result": 5, "unit": "%"}, {"measurement": "Inhibition value, I (%)", "setting": "[3]; C 7.15 μg/mL, age of the fungus 9 days", "result": 4, "unit": "%"}, {"measurement": "Inhibition value, I (%)", "setting": "[3]; C 14.30 μg/mL, age of the fungus 3 days", "result": 9, "unit": "%"}, {"measurement": "Inhibition value, I (%)", "setting": "[3]; C 14.30 μg/mL, age of the fungus 5 days", "result": 4, "unit": "%"}, {"measurement": "Inhibition value, I (%)", "setting": "[3]; C 14.30 μg/mL, age of the fungus 7 days", "result": 11, "unit": "%"}, {"measurement": "Inhibition value, I (%)", "setting": "[3]; C 14.30 μg/mL, age of the fungus 9 days", "result": 5, "unit": "%"}, {"measurement": "Inhibition value, I (%)", "setting": "[3]; C 28.60 μg/mL, age of the fungus 3 days", "result": 11, "unit": "%"}, {"measurement": "Inhibition value, I (%)", "setting": "[3]; C 28.60 μg/mL, age of the fungus 5 days", "result": 7, "unit": "%"}, {"measurement": "Inhibition value, I (%)", "setting": "[3]; C 28.60 μg/mL, age of the fungus 7 days", "result": 26, "unit": "%"}, {"measurement": "Inhibition value, I (%)", "setting": "[3]; C 28.60 μg/mL, age of the fungus 9 days", "result": 10, "unit": "%"}, {"measurement": "Inhibition value, I (%)", "setting": "[3]; C 42.90 μg/mL, age of the fungus 3 days", "result": 31, "unit": "%"}, {"measurement": "Inhibition value, I (%)", "setting": "[3]; C 42.90 μg/mL, age of the fungus 5 days", "result": 27, "unit": "%"}, {"measurement": "Inhibition value, I (%)", "setting": "[3]; C 42.90 μg/mL, age of the fungus 7 days", "result": 32, "unit": "%"}, {"measurement": "Inhibition value, I (%)", "setting": "[3]; C 42.90 μg/mL, age of the fungus 9 days", "result": 13, "unit": "%"}, {"measurement": "EC50", "setting": "[3]", "result": 55, "unit": "µg/mL"}]}]}
